Measurements: article PMC8708390, “Fatty Acid Modification of the Anticancer Peptide LVTX-9 to Enhance Its Cytotoxicity against Malignant Melanoma Cells” (Toxins, 2021)
Where no end group is shown, it is not given here.

Legend:
[1] = tested on: B16-F10 cells; experiment: LDH leakage assay; type: cell-based, mouse; details: 25 μM, 24 h, absorbance 490 nm, n = 3
Procedure: At first, the B16-F10 cells were cultured in 96-well plates for 24 h at approximately 2 × 10^3 cells/well. Subsequently, the cells were treated for 24 h with LVTX-9 or LVTX-9-C18 with a series of concentration gradients. LDH leakage detection was detected using an LDH Cytotoxicity Assay Kit according to the manufacturer’s instructions (Beyotime, Shanghai, China. C0017). The absorption was measured using an Absorbance Microplate Reader (BioTek Instruments) at 490 nm. The LDH release (%) of peptides was calculated by GraphPad prism 5.0.

[2] = tested on: B16-F10 cells; experiment: Trypan blue staining; type: cell-based, mouse; details: 50 μM, 24 h, 0.04% trypan blue 4 min
Procedure: B16-F10 cells were seeded into a 48-well plate (2 × 10^3 cells/well) for 24 h and treated with LVTX-9 (50 μM) and LVTX-9-C18 (5 μM) for 24 h. The cells were washed with PBS gently and stained with 0.04% Trypan blue for 4 min. Dead cells were stained blue.

[3] = Circular dichroism secondary structure; type: physicochemical; details: 100 µM, 25 °C, 180-280 nm
Procedure: Dynamic light scattering (DLS) of Zetasizer Nano ZSP (Malvern Instruments, Malvern, UK) apparatus was used to determine the hydrodynamic size and zeta potential of LVTX-9 and LVTX-9-C18. The peptides concentrations were diluted to 100 µM with ultrapure water with a final volume of 1 mL. The procedure ran at 25 °C, with each experiment repeated three times. The secondary structures of LVTX-9 and LVTX-9-C18 were determined to be in line with the previous protocol. The peptide concentrations were then diluted to 100 µM with ultrapure water and 100 mM of SDS was added in a final volume of 250 μL. The procedure was carried out at 25 °C. CD spectra were recorded between 180 nm and 280 nm on a Jasco J-815 CD spectrometer.

[4] = tested on: B16-F10 cells; experiment: CCK-8 cell viability assay, B16-F10 cells; type: cell-based, mouse; details: 50 μM, 24 h of treatment, serum-free medium (Figure 3B)
Procedure: Mouse skin melanoma cells (B16-F10) were cultured in RPMI-1640 (Gibco), and mouse fibroblast cells (L-929), human lung carcinoma cells (A549), mouse breast cells (4T1), human hepatocarcinoma cells (HepG2), and human cervical carcinoma cells (Hela) were cultured in Dulbecco’s Modified Eagle Medium (DMEM, Gibco). All culture medium contained 10% fetal bovine serum (serum, Gibco), 100 U/mL of penicillin, and […] of streptomycin at 37 °C with 5% CO2.
Cell viability was quantified using a CCK-8 assay. At first, cells were seeded into a 96-well plate at approximately 2 × 10^3 cells/well. The following day, we created a 2-fold dilution series of each peptide using fresh medium (with or without 10% serum) for the treated cells, and cell viability was detected at 450 nm via a CCK-8 assay using an Absorbance Microplate Reader (BioTek Instruments, Winooski, VT, USA) following 24 h of drug incubation. The activity curves and IC50 values of the peptides were visualized using GraphPad prism 5.0.

For “ASIGALIQKAIALIKAKAA-NH2 (C-terminus assumed) [LVTX-9]”, the “LDH release at 25 μM” value [1] was ~ 2%, the “trypan blue staining at 50 μM” value [2] was “almost unstained” and the “secondary structure (CD) in 100 mM of SDS” value ([3]; 100 mM SDS) was “α-helical conformation”. For the same substance, the “secondary structure (CD) in ultrapure water” value ([3]; ultrapure water) was “random coil conformation” and the “effect on cell viability at 50 μM” value [4] was “no significant effect on cell viability”.
